Measurements reported in US6552058B1, “Oxazolidinedione derivatives and their use” (Takeda Chemical Industries, Ltd., priority 1993, dated 2003).
Where two headings read alike, the source gives them in different places.

Tests used:
KKA^y mice = assay: Hypoglycemic and hypolipidemic actions in mice (plasma glucose and triglyceride); type: in vivo; settings: Mus musculus, po, 96 h, reduction from control group, 0.005% in powdery feed for 4 days
Text: Hypoglycemic and Hypolipidemic Actions in Mice
A test compound mixed in a powdery feed (CE-2, Japan Clea) at a rate of 0.005% was fed to KKA^y mice (9-14 week old) freely for 4 days. During the period, the animals had free access to water. Blood was collected from the orbital venous plexus. Using the plasma, glucose and triglyceride were enzymatically determined quantitatively by using Iatrochem-GLU(A) and Iatro-MA701 TG kit (latron Inc.). The respective values are percents reduction (%) found in drug-dosed groups from the control group not receiving the test compound, which are shown in [Table 1].

[1] = plasma glucose, read-out: Hypoglycemic Action % reduction
[2] = plasma triglyceride, read-out: Hypolipidemic Action % reduction

| melting point [°C] | SMILES | inhibition in vivo at 0.005 % in diet (KKA^y mice; [1]) [%] | inhibition in vivo at 0.005 % in diet (KKA^y mice; [2]) [%] |
| --- | --- | --- | --- |
| 213 to 214 | Cc1cccc(-c2nc(CCOc3ccc(C=CC=C4OC(=O)NC4=O)cc3)c(C)o2)c1 [Example 1, 5-[4-[2-[5-methyl-2-(3-methylphenyl)-4-oxazolyl]ethoxy]cinnamylidene]-2,4-oxazolidinedione] |  |  |
| 237 to 239 | Cc1oc(-c2ccccc2)nc1Cc1cc2cc(C=CC=C3OC(=O)NC3=O)ccc2o1 [Example 14, 5-[3-[2-(5-methyl-2-phenyl-4-oxazolylmethyl)benzofuran-5-yl]-2-propenylidene]-2,4-oxazolidinedione] |  |  |
| 120 to 121 | Cc1oc(-c2ccccc2)nc1COc1ccc(CCCCCC2OC(=O)NC2=O)cc1 (stereo not drawn) [Example 33, 5-[5-[4-(5-methyl-2-phenyl-4-oxazolylmethoxy)phenyl]pentyl]-2,4-oxazolidinedione] | 45 | 59 |
| 184 to 185 | Cc1oc(-c2ccccc2)nc1Cc1cc2cc(CCCC3OC(=O)NC3=O)ccc2o1 (stereo not drawn) [Example 30, 5-[3-[2-(5-methyl-2-phenyl-4-oxazolylmethyl)benzofuran-5-yl]propyl]-2,4-oxazolidinedione] | 57 | 70 |
| 193 to 194 | Cc1oc(-c2ccccc2)nc1CCOc1ccc(CCC2OC(=O)NC2=O)cc1 (stereo not drawn) [Example 24, 5-[2-[4-[2-(5-methyl-2-phenyl-4-oxazolyl)ethoxy]phenyl]ethyl]-2,4-oxazolidinedione] | 56 | 53 |
| 186 to 187 | Cc1oc(-c2ccccc2)nc1COc1ccc(CCCCC2OC(=O)NC2=O)cc1 (stereo not drawn) [Example 34, 5-[4-[4-(5-methyl-2-phenyl-4-oxazolylmethoxy)phenyl]butyl]-2,4-oxazolidinedione] | 43 | 51 |
| 209 to 211 | Cc1oc(-c2ccccc2)nc1CCOc1ccc(C=CC=CC=C2OC(=O)NC2=O)cc1 [Example 15, 5-[5-[4-[2-(5-methyl-2-phenyl-4-oxazolyl)ethoxy]phenyl]-2,4-pentadienylidene]-2,4-oxazolidinedione] |  |  |

The next lines start with the compound.

| SMILES | melting point [°C] | inhibition in vivo at 0.005 % in diet (KKA^y mice; [1]) [%] | inhibition in vivo at 0.005 % in diet (KKA^y mice; [2]) [%] |
| --- | --- | --- | --- |
| Cc1oc(-c2ccccc2)nc1CCOc1ccc(CCCCCC2OC(=O)NC2=O)cc1 (stereo not drawn) [Example 31, 5-[5-[4-[2-(5-methyl-2-phenyl-4-oxazolyl)ethoxy]phenyl]pentyl]-2,4-oxazolidinedione] | 157 to 158 |  |  |
| Cc1oc(-c2ccccc2)nc1COc1ccc(CCCC2OC(=O)NC2=O)cn1 (stereo not drawn) [Example 52, 5-[3-[2-(5-methyl-2-phenyl-4-oxazolylmethoxy)-5-pyridyl]propyl]-2,4-oxazolidinedione] |  | 54 | 82 |
| Cc1oc(-c2ccccc2)nc1COc1ccc(CCC2OC(=O)NC2=O)cc1 (stereo not drawn) [Example 32, 5-[2-[4-(5-methyl-2-phenyl-4-oxazolylmethoxy)phenyl]ethyl]-2,4-oxazolidinedione] |  | 63 | 60 |
| Cc1oc(-c2ccccc2)nc1C(=O)COc1ccc(CCCC2OC(=O)NC2=O)cc1 (stereo not drawn) [Example 35, 5-[3-[4-[2-(5-methyl-2-phenyl-4-oxazolyl)-2-oxoethoxy]phenyl]propyl]-2,4-oxazolidinedione] |  | 42 | 32 |
| Cc1oc(-c2ccccc2)nc1COc1cccc(CCCC2OC(=O)NC2=O)c1 (stereo not drawn) [Example 56, 5-[3-[3-(5-methyl-2-phenyl-4-oxazolylmethoxy)phenyl]propyl]-2,4-oxazolidinedione] |  | 32 | 24 |
| Cc1cccc(-c2nc(CCOc3ccc(CCCC4OC(=O)NC4=O)cc3)c(C)o2)c1 (stereo not drawn) [Example 16, 5-[3-[4-[2-[5-methyl-2-(3-methylphenyl)-4-oxazolyl]ethoxy]phenyl]propyl]-2,4-oxazolidinedione] | 149 to 150 |  |  |
| Cc1oc(-c2ccccc2)nc1CCOc1ccc(CCCC2OC(=O)NC2=O)cn1 (stereo not drawn) [Example 23, 5-[3-[2-[2-(5-methyl-2-phenyl-4-oxazolyl)ethoxy]-5-pyridyl]propyl]-2,4-oxazolidinedione] | 169 to 171 | 39 | 33 |
| Cc1oc(-c2ccccc2)nc1C(O)COc1ccc(CCCC2OC(=O)NC2=O)cc1 (stereo not drawn) [Example 36, 5-[3-[4-[2-hydroxy-2-(5-methyl-2-phenyl-4-oxazolyl)ethoxy]phenyl]propyl]-2,4-oxazolidinedione] | 146 to 147 | 56 | 48 |
| Cc1oc(-c2ccccc2)nc1COc1ccc(C(C)CCC2OC(=O)NC2=O)cc1 (stereo not drawn) [Example 60, 5-[3-[4-(5-methyl-2-phenyl-4-oxazolylmethoxy)phenyl]butyl]-2,4-oxazolidinedione] |  | 54 | 77 |
